Substitutions are numbered along the chain they refer to. Where a SMILES comes first, the peptide text is derived from it.
Key:
[1] = biological target: T1, Y91Q-rPepT1 (Oryctolagus cuniculus, UniProt P36836, Y91Q); assay: Competition of [3H]-D-Phe-L-Gln uptake into Xenopus oocytes, Ki; type: cell-based, rabbit; details: pHout 7.4; against 0.4 μM [3H]-D-Phe-L-Gln uptake
T1 construct: expressed in transfected cells; host or cells: Xenopus laevis oocytes injected with cRNA
T1 sequence (P36836 1-707 Y91Q): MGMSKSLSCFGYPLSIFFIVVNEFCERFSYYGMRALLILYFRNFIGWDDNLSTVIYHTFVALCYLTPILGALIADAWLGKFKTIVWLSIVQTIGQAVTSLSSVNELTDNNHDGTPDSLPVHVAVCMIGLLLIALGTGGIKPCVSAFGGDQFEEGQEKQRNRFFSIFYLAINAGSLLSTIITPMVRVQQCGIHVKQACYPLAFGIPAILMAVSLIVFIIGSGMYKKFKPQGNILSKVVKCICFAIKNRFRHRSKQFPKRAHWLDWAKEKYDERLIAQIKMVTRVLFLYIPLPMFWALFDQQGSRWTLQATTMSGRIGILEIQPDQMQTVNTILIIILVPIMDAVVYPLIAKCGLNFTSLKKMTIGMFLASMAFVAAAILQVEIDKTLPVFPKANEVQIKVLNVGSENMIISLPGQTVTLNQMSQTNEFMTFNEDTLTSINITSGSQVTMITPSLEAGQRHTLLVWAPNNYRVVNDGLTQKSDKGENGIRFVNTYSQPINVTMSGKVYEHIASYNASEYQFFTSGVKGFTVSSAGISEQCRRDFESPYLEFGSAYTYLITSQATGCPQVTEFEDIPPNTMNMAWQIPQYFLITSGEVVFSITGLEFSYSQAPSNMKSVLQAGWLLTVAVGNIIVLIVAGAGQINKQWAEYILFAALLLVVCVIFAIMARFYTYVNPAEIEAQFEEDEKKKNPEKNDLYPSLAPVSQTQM
Description: (§1) rPepT1 constructs were linearised with XbaI (New England Biolabs, UK) and cRNA generated by in vitro transcription (T7 mMessage mMachine, Ambion, Cambridgeshire, UK). Xenopus laevis oocytes were obtained under MS222 anaesthesia (0.2%, w/v) in accordance with the UK Animals (Scientific Procedures) Act, 1986, and maintained at 18 °C in modified Barth's medium (88 mM NaCl, 1 mM KCl, 0.82 mM MgSO4, 2.4 mM NaHCO3, 0.42 mM CaCl2, 10 mM Hepes, 5 mM sodium pyruvate, 50 μg ml^−1 gentamicin (Fluka, Poole, UK), adjusted to pH 7.6 with 1 M NaOH). Transport measurements were performed at least 72 h after micro-injection of oocytes with 27nl cRNA (1 μg/μl), with medium changed daily.
(§2) Uptake of [^3H]-D-Phe-L-Gln (17.4 Ci/mmole, custom synthesised, Cambridge Research Biochemicals, Stockton-on-Tees, UK) was performed as previously described ([Meredith, 2004]). Briefly, 5 oocytes were incubated in 100 μl of uptake medium (95 mM NaCl, 2 mM KCl, 1 mM CaCl2, 0.42 mM MgCl2, 10 mM Tris/Hepes pH 7.4 or Tris/Mes pH 5.5) with tracer (0.4 μM) [^3H]-D-Phe-L-Gln. After incubation, the oocytes were washed sequentially five times in 1 ml of ice-cold 120 mM NaCl solution, lysed individually with 100 μl 2% (w/v) SDS and liquid scintillation counted. As a control non-injected oocytes were also incubated in uptake medium with D-Phe-L-Gln as above.
(§3) The affinity of wild-type and mutant rPepT1 transporters were assessed by competition studies with 0.4 μM [^3H]-D-Phe-L-Gln and Gly-L-Gln present in the uptake medium in concentrations from 0 to 2 mM using the protocol above, and the Ki calculated using the method of [Deves and Boyd (1989)].

[2] = biological target: T2, Y91R-rPepT1 (Oryctolagus cuniculus, UniProt P36836, Y91R); assay: as above; type: cell-based, rabbit; details: pHout 7.4; against 0.4 μM [3H]-D-Phe-L-Gln uptake
T2 construct: expressed in transfected cells; host or cells: Xenopus laevis oocytes injected with cRNA
T2 sequence (P36836 1-707 Y91R): T1 sequence (P36836 1-707 Y91Q) with Q91R
Description: as §1, §2, §3

## NCC(=O)N[C@@H](CCC(N)=O)C(=O)O [Gly-L-Gln] (H-Gly-Gln-OH)
[1]
  Ki: 30 ± 5 µM
[2]
  Ki: 3 ± 1 µM

Source: paper PMC3510438, “The transmembrane tyrosines Y56, Y91 and Y167 play important roles in determining the affinity and transport rate of the rabbit proton-coupled peptide transporter PepT1” (The International Journal of Biochemistry & Cell Biology, 2009)
